What all share (assay type): cell-based, human
One series deals with TTK mRNA. Description: Antisense depletion of TTK mRNA after transfection, quantitated by real-time PCR. The note with it: SW620 cells, oligonucleotide final concentration 30 nM, normalized to beta-actin. On the procedure:
A number of different oligonucleotides complementary to TTK mRNA were designed as potential antisense oligonucleotides, and tested for their ability to suppress expression of TTK. The ability of each designed antisense oligonucleotide to inhibit gene expression was tested through transfection into SW620 colon colorectal carcinoma cells. For each transfection mixture, a carrier molecule, preferably a lipitoid or cholesteroid, was prepared to a working concentration of 0.5 mM in water, sonicated to yield a uniform solution, and filtered through a 0.45 μm PVDF membrane. The antisense or control oligonucleotide was then prepared to a working concentration of 100 μM in sterile Millipore water. The oligonucleotide was further diluted in OptiME™ (Gibco/BRL), in a microfuge tube, to 2 μM, or approximately 20 μg oligo/ml of OptiMEM™. […]
The level of target mRNA (TTK) in the transfected cells was quantitated in the cancer cell lines using the Roche LightCycler™ real-time PCR machine. […]
An amplification mixture was prepared by mixing in the following order: 1×PCR buffer II, 3 mM MgCl2, 140 μM each dNTP, 0.175 pmol each oligo, 1:50,000 dil of SYBR® Green, 0.25 mg/ml BSA, 1 unit Taq polymerase, and H2O to 20 μl. […] As double stranded PCR product is produced during amplification, the fluorescence from SYBR®) Green increases. […]
Background: In qPCR the cycle at which signal appears reflects the starting amount.

The test system of series [1] is SW620 cells. Put plainly: Soft agar colony formation assay. To be noted: 2000 cells per well, oligo added without delivery vehicle. On the procedure:
The effect of TTK expression upon colony formation was tested in a soft agar assay. Soft agar assays were conducted by first establishing a bottom layer of 2 ml of 0.6% agar in media plated fresh within a few hours of layering on the cells. The cell layer was formed on the bottom layer by removing cells transfected as described above from plates using 0.05% trypsin and washing twice in media. The cells were counted in a Coulter counter, and resuspended to 10^6 per ml in media. 10 μl aliquots are placed with media in 96-well plates (to check counting with WST1), or diluted further for soft agar assay. 2000 cells are plated in 800 μl 0.4% agar in duplicate wells above 0.6% agar bottom layer. After the cell layer agar solidifies, 2 ml of media is dribbled on top and antisense or reverse control oligo is added without delivery vehicles. Fresh media and oligos are added every 3-4 days. Colonies are formed in 10 days to 3 weeks. Fields of colonies were counted by eye. Wst-1 metabolism values can be used to compensate for small differences in starting cell number. Larger fields can be scanned for visual record of differences.

Series [2] concerns SW620 cells. Description: Cell death by LDH release (Cytotoxicity Detection Kit). Here is the method:
SW620 cells were transfected as described for proliferation assays. For cytotoxic effect in the presence of cisplatin (cis), the same protocol was followed but cells were left in the presence of 2 μM drug. Each day, cytotoxicity was monitored by measuring the amount of LDH enzyme released in the medium due to membrane damage. The activity of LDH was measured using the Cytotoxicity Detection Kit from Roche Molecular Biochemicals. The data is provided as a ratio of LDH released in the medium vs. the total LDH present in the well at the same time point and treatment (rLDH/tLDH).

Consider “79-5AS (antisense GGGACTCTTCCAAATGGGCATGACT; chemistry not given here) [Oligo 79-5AS]”, for which the “depletion of TTK RNA in the transfection assays” value in the series on TTK mRNA is given as “effectively deplete TTK RNA”. On to “79-9AS (antisense TCCAGTAACTCTTGCGTTCCCATGG; chemistry not given here) [Oligo 79-9AS]”, for which the “depletion of TTK RNA in the transfection assays” value in the series on TTK mRNA was “effectively deplete TTK RNA”. The “colony size and number compared to reverse control (79-9RC) or control oligonucleotides (52-3AS, 52-3RC)” value with SW620 cells [1] is “decreased colony size and number”. With “Oligo 79-9AS: TTK antisense oligonucleotide TCCAGTAACTCTTGCGTTCCCATGG (SEQ ID NO:6) (chemistry not given here)”, the “sensitization of the cells to treatment by cisplatin” value in the series with SW620 cells [2] (2 μM cisplatin, rLDH/tLDH) is “does not sensitize the cells to treatment by cisplatin at a detectable level”. In addition, in the series with SW620 cells [2] (day 3), the “cell death compared to control oligo (rLDH/tLDH)” value was “increased death”.

Values taken from US7867731B2, “HX2004-6 polypeptide expressed in cancerous cells” (Novartis Vaccines and Diagnostics, Inc., priority 1998, dated 2011).
